Assay [1] concerns the target T1, PRMT5 (Homo sapiens, UniProt O14744).
T1 construct: purchased Viva (custom protein)
As to the kind of experiment: PRMT5 IC50 assay in the presence of MTA as cofactor. The format is biochemical. The settings on record: for IC50: PRMT5, MTA as cofactor; for SAM/MTA Ratio: ratio between Ki in the presence of SAM and Ki in the presence of MTA. A digest of the protocol: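 Three cofactor conditions tested for PRMT5 inhibition: none, MTA and SAM, each giving an IC50. For conversion to Ki, the MTA-condition IC50 is divided by 13.5 and the SAM-condition IC50 by 1.5, and the two Ki values are expressed as a SAM/MTA ratio.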

In assay [2] the test system is HAP1 MTAP-intact. As to the kind of experiment: SDMA in-cell western assay, HAP1 MTAP-intact cell line. Type of assay: cell-based. The settings on record: Homo sapiens. A digest of the protocol:
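Using an MTAP-isogenic HAP1 cell pair, inhibition of SDMA formation is read by in-cell western and expressed as IC50. MTAP-selectivity is assigned where the ratio between lines reaches 3 fold or greater.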

In assay [3] the test system is HAP1 MTAP-deleted. Description: SDMA in-cell western assay, HAP1 MTAP-deleted cell line. The format is cell-based. The following applies: for IC50: Homo sapiens, HAP1 MTAP-deleted cell line; for MTAP Intact/Deleted Ratio: IC50 ratio HAP1 MTAP-intact / HAP1 MTAP-deleted. A digest of the protocol:
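In-cell western for SDMA marks; MTAP-deleted (null) HAP1 background; values given as IC50.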

Assay [4] has as its target T1, PRMT5. As to the kind of experiment: PRMT5 IC50 assay with no cofactor. Type of assay: biochemical. The settings on record: read-out: No Co-factor IC50. An outline of the steps:
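IC50 values were measured against human PRMT5 with SAM, with MTA, or with no cofactor. Ki was derived from IC50 as Ki=IC50/1.5 with SAM and Ki=IC50/13.5 with MTA, and the Ki(SAM)/Ki(MTA) ratio was then taken.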

Assay [5] has as its target T1, PRMT5. As to the kind of experiment: PRMT5 IC50 assay in the presence of SAM as cofactor. Type of assay: biochemical. A digest of the protocol:
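Enzyme: human PRMT5. Conditions: plus SAM, plus MTA, or cofactor-free. Output: IC50 (μM); Ki via IC50/1.5 (SAM) or IC50/13.5 (MTA).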

T1 sequence (O14744 whole entry): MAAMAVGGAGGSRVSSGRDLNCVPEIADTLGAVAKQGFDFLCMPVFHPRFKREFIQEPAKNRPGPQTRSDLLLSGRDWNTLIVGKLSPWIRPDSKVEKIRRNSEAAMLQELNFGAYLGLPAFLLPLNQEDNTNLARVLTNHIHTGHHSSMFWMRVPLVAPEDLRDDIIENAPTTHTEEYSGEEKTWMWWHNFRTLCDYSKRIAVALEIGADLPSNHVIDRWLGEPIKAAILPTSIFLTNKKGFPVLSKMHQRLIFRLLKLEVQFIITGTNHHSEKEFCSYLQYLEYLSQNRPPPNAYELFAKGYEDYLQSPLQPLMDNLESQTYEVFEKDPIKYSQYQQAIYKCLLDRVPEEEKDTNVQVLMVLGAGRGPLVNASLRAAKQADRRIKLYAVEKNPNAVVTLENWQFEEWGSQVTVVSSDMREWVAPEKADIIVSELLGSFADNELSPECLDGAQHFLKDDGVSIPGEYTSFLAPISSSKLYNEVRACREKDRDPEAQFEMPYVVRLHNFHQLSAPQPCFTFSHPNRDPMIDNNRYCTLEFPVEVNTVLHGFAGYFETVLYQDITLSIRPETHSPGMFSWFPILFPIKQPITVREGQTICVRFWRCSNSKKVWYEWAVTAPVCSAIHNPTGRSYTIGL
T1 sequence (Q9BQA1 whole entry partner): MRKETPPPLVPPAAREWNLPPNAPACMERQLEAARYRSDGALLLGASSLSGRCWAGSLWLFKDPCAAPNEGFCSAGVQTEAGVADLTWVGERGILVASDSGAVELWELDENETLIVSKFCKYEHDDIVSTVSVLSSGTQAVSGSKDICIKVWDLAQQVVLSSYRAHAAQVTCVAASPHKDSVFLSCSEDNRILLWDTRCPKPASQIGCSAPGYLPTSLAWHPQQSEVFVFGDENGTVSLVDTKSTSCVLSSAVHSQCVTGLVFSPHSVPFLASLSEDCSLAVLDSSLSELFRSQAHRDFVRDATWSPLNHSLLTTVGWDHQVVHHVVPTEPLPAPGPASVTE

Consider `O=C(NC[C@H](O)CN1CCc2cc(OCc3cnco3)ccc2C1)c1cc(NC2CCCC2)ncn1` [Compound 372, (S)-6-(cyclopentylamino)-N-(2-hydroxy-3-(6-(oxazol-5-ylmethoxy)-3,4-dihydroisoquinolin-2(1H)-yl)propyl)pyrimidine-4-carboxamide], for which the IC50 in assay [1] was 50 to 500 nM; in assay [2], below 1000 nM; in assay [3] it was below 1000 nM; in assay [4], at least 5000 nM; in assay [5] it was 500 to 5000 nM. Further, in assay [1], the “SAM/MTA Ratio” value is “A (a Ki ratio greater than or equal to 10 fold between the Ki in the presence of SAM and the Ki in the presence of MTA)”. The “MTAP Intact/Deleted Ratio” value in assay [3] was “C* (an IC50 ratio of less than 3 fold between the IC50 in the HAP1 MTAP-intact cell line and the HAP1 MTAP-deleted cell line)”.
On to `CC(C)(C)N1CCN(c2nc(NC3COC3)cc(C(=O)NC[C@H](O)CN3CCc4cc(OCc5cnco5)ccc4C3)n2)CC1` [Compound 373], for which the half-inhibitory concentration (IC50) in assay [1] was 50 to 500 nM; in assay [2] it was at least 10000 nM; in assay [3], 1000 to 10000 nM; in assay [4], 500 to 5000 nM; in assay [5], 50 to 500 nM. The “SAM/MTA Ratio” value in assay [1] is “A (a Ki ratio greater than or equal to 10 fold between the Ki in the presence of SAM and the Ki in the presence of MTA)”. The “MTAP Intact/Deleted Ratio” value in assay [3] is “B* (an IC50 ratio greater than or equal to 3 fold but lower than 10 fold between the IC50 in the HAP1 MTAP-intact cell line and the HAP1 MTAP-deleted cell line)”.
As to `Cc1ncoc1COc1ccc2c(c1)CCN(C[C@@H](O)CNC(=O)c1cc(NC3CCC3)ncn1)C2` [Compound 374, 6-(cyclobutylamino)-N-[(2S)-2-hydroxy-3-{6-[(4-methyl-1,3-oxazol-5-yl)methoxy]-1,2,3,4-tetrahydroisoquinolin-2-yl}propyl]pyrimidine-4-carboxamide], the half-maximal inhibitory concentration (IC50) in assay [1] is 50 to 500 nM; in assay [2], 1000 to 10000 nM; in assay [3], below 1000 nM; in assay [4], at least 5000 nM; in assay [5] it was 50 to 500 nM. In assay [1], the “SAM/MTA Ratio” value was “A (a Ki ratio greater than or equal to 10 fold between the Ki in the presence of SAM and the Ki in the presence of MTA)”. Further, the “MTAP Intact/Deleted Ratio” value in assay [3] was “C* (an IC50 ratio of less than 3 fold between the IC50 in the HAP1 MTAP-intact cell line and the HAP1 MTAP-deleted cell line)”.
On to `Cc1ncoc1COc1ccc2c(c1C)CCN(C[C@@H](O)CNC(=O)c1cccc(NC3COC3)c1)C2` [Compound 375, N-[(2S)-2-hydroxy-3-{5-methyl-6-[(4-methyl-1,3-oxazol-5-yl)methoxy]-1,2,3,4-tetrahydroisoquinolin-2-yl}propyl]-3-[(oxetan-3-yl)amino]benzamide], for which the half-maximal inhibitory concentration (IC50) is 500 to 5000 nM in assay [1]; at least 10000 nM in assay [2]; at least 10000 nM in assay [3]; at least 5000 nM in assay [4]; 500 to 5000 nM in assay [5]. Further, the “SAM/MTA Ratio” value in assay [1] was “A (a Ki ratio greater than or equal to 10 fold between the Ki in the presence of SAM and the Ki in the presence of MTA)”. The “MTAP Intact/Deleted Ratio” value in assay [3] was “C* (an IC50 ratio of less than 3 fold between the IC50 in the HAP1 MTAP-intact cell line and the HAP1 MTAP-deleted cell line)”.
For `Cc1c(OCc2cnco2)ccc2c1CCN(C[C@@H](O)CNC(=O)c1cc(NC3CCC3)ncn1)C2` [Compound 376, 6-(cyclobutylamino)-N-[(2S)-2-hydroxy-3-{5-methyl-6-[(1,3-oxazol-5-yl)methoxy]-1,2,3,4-tetrahydroisoquinolin-2-yl}propyl]pyrimidine-4-carboxamide], the 50% inhibitory concentration (IC50) in assay [1] is 500 to 5000 nM; in assay [2], at least 10000 nM; in assay [3], at least 10000 nM; in assay [4], at least 5000 nM; in assay [5] it was 500 to 5000 nM. Besides, the “SAM/MTA Ratio” value in assay [1] is “A (a Ki ratio greater than or equal to 10 fold between the Ki in the presence of SAM and the Ki in the presence of MTA)”. The “MTAP Intact/Deleted Ratio” value in assay [3] is “C* (an IC50 ratio of less than 3 fold between the IC50 in the HAP1 MTAP-intact cell line and the HAP1 MTAP-deleted cell line)”.

Values taken from US11986471B2, “Compounds and methods of use” (Tango Therapeutics, Inc., priority 2018, dated 2024).
